# Patent publication US12233086B2, “Biomarkers for neurogenerative disease” (Neuvivo, Inc., priority 2022, dated 2025)
# “And” between values parts separate entries of the source, which are not always exact repeats. Equal values may be shown once. Read-outs that look alike come from different tables or passages of the source.
# Columns and labels:
# ALS patients [1] = test system: ALS patients
# NfL = conditions: 6 months; p=0.09
# TGFB1 = conditions: age≤65, baseline CRP>1.13 mg/L; p=0.02 for month 6
# Procedure: (§1) Participants received a total of 20 infusions administered intravenously monthly over 6 cycles during a 6-month double-blind treatment period. […] The start of each cycle was separated by four weeks. Cycle 1 consisted of 30 min infusions over 5 consecutive days. Cycles 2, 3, 4, 5, and 6 each consisted of 3 consecutive daily infusions. ALSFRS-R and vital capacity measurements were performed monthly. The average rate of ALS disease progression (Average DP Rate) at baseline was defined as ALSFRS-R score change per month [(48−ALSFRS-R score at baseline)/months since ALS symptom onset from baseline]]. […] Plasma specimens for biomarker analysis were obtained at the beginning and end of the study (month 6, one month after last dose). All patients had to have completed the study to provide end of study plasma. The units expressed in this Example are hs-CRP units, abbreviated as CRP.
# ALS patients [2] = conditions: for decline in VC over 6 months vs placebo (words): CRP>1.13 mg/L
# Procedure: as §1
# The clinical outcome data evaluated for the current study were the forced vital capacity measurements performed on all patients at baseline and every month until the end of study. Using the patient's age and height with the actual respiratory volume measured, the % predicted vital capacity (VC) was calculated as described.
# EGF = test system: EGF
# Source text: (§2) Description of ALS Phase 2A trial and participants: Participants received a total of infusions administered intravenously over 6 cycles during a 25-week double-blind treatment period. There were 4 weeks between the start of each cycle. Cycle 1 consisted of 5 consecutive daily infusions. Cycles 2, 3, 4, 5, and 6 each consisted of 3 consecutive daily infusions. Plasma specimens for biomarker analysis were obtained at the beginning and end of study.
# (§3) Source of patient specimens: The plasma specimens had been stored at −80° C. since the trial ended and were all evaluated for biomarker levels.
# LPS = test system: LPS
# Source text: as §2, §3
# IL-10 = test system: IL-10
# Source text: as §2, §3
# sCD163 = test system: sCD163
# Source text: as §2, §3
# Neopterin = test system: Neopterin
# Source text: as §2, §3
# IL-18 = test system: IL-18
# Source text: as §2, §3
# LBP = test system: LBP
# Source text: as §2, §3
# HGF = test system: HGF
# Source text: as §2, §3
# LPS:EGF = conditions: ratio increased over time in placebo
# IL-8 = conditions: age 40-65, CRP>1.13 mg/L
# Procedure: as §3
# TNF-a = conditions: age 40-65, CRP>1.13 mg/L
# Procedure: as §3
# IL-6 = conditions: age 40-65, CRP>1.13 mg/L
# Procedure: as §3
# CD16 = conditions: phase 1 dose ascending study in ALS patients; cited from earlier work
# ALS patients [3] = conditions: plasma CRP greater than 1.13 mg/L; rates of ALSFRS-R and vital capacity decline; cited from earlier work
# [4] = CRP>1.13 mg/L, listed as sodium chlorite
# [5] = NP001 2 mg/kg, N 59, age≤65, CRP>1.13 mg/L
# [6] = NP001 2 mg/kg, N 64, age≤65, CRP>1.13 mg/L
# [7] = NP001 2 mg/kg, N 68, age≤65, CRP>1.13 mg/L
# [8] = NP001 2 mg/kg, N 69, age≤65, CRP>1.13 mg/L
# [9] = NP001 2 mg/kg, N 72, age≤65, CRP>1.13 mg/L
# [10] = NP001 2 mg/kg, N 74, age≤65, CRP>1.13 mg/L
# [11] = CRP>1.13 mg/L, aged 40-65, Wilcoxon p 0.04
# [12] = NP001 2 mg/kg, N 14, age 40-65, CRP>1.13 mg/L, six months
# [13] = CRP>1.13 mg/L, aged 40-65, Wilcoxon p 0.02
substance,measurement,setting,value
sodium chlorite [NP001],ALSFRS-R score lost over six months,"ALS patients [1]; 2 mg/kg, CRP>1.13 mg/L, age 40-65, placebos lost 4.6 units (p=0.03)",1.2 units
same,proportion of non-progressors (no decrease in ALSFRS-R score at 6 months),"ALS patients [1]; 2 mg/kg, age 40-65, CRP>1.13 mg/L, placebo 2 out of 17",6 out of 15
same,decline in ALSFRS-R over 6 months vs placebo (words),ALS patients [1]; CRP>1.13 mg/L,highly significant difference
same,non-progression rate (no decrease in ALSFRS-R score at 6 months),"ALS patients [1]; CRP>1.13 mg/L, age 40-65, placebos less than 10% (p=0.08)",35%
same,decline in ALSFRS-R over 6 months vs placebo (words),ALS patients [1]; [4],significantly slowed
same,relationship between drug dose and change in ALSFRS-R score over six months,ALS patients [1]; plasma CRP above the median value (1.13 mg/L),dose responsive relationship
same,clinical activity in all ALS patients of the phase 2A study,"ALS patients [1]; symptom onset within the past three years, no CRP or age cutoff",did not show significant clinical activity
same,plasma NfL in treated non-progressors compared to progressors,NfL,trend towards a loss of plasma NfL
same,plasma TGFB1 levels over the 6-month trial vs placebo,TGFB1,significantly increased
same,average VC lost per month,"ALS patients [2]; 2 mg/kg, age≤65, CRP>1.13 mg/L, placebos 2.1%",0.75 % VC per month
same,decline in VC over 6 months vs placebo (words),ALS patients [2],improved
same,decline in VC over 6 months vs placebo (words),ALS patients [2]; listed as sodium chlorite,significantly slowed
same,"% VC change from baseline, Month 6, Mean",ALS patients [2]; [5],Mean: −9.1%
same,"% VC change from baseline, Month 6, Median",ALS patients [2]; [5],Median: −5.4%
same,"% VC change from baseline, Month 5, Mean",ALS patients [2]; [6],Mean: −9.4%
same,"% VC change from baseline, Month 5, Median",ALS patients [2]; [6],Median: −6.4%
same,"% VC change from baseline, Month 4, Mean",ALS patients [2]; [7],Mean: −8.1%
same,"% VC change from baseline, Month 4, Median",ALS patients [2]; [7],Median: −5.4%
same,"% VC change from baseline, Month 3, Mean",ALS patients [2]; [8],Mean: −6.5%
same,"% VC change from baseline, Month 3, Median",ALS patients [2]; [8],Median: −3.8%
same,"% VC change from baseline, Month 2, Mean",ALS patients [2]; [9],Mean: −4.6%
same,"% VC change from baseline, Month 2, Median",ALS patients [2]; [9],Median: −2.6%
same,"% VC change from baseline, Month 1, Mean",ALS patients [2]; [10],Mean: −2.5%
same,"% VC change from baseline, Month 1, Median",ALS patients [2]; [10],Median: −0.9%
same,"mean % VC change from baseline by the end of study, low CRP group","ALS patients [2]; age≤65, CRP<1.13 mg/L, Placebo −13.5%, p=0.83",−16.4%
same,slower rate of VC loss compared to placebo,"ALS patients [2]; age≤65, CRP>1.13 mg/L, end of six-month study, p=0.05",> 64% and 64%
same,plasma EGF change relative to placebo over 6 months,EGF; CRP>1.13 mg/L,increased
same,EGF: % difference between NP001-treated and placebo at 6 months (% median change from baseline),EGF; [11],32.4%
same,"% EGF change from baseline, Mean",EGF; [12],64.3%
same,"% EGF change from baseline, Median",EGF; [12],6.5%
same,LPS: % difference between NP001-treated and placebo at 6 months (% median change from baseline),LPS; [11],−51.8%
same,plasma LPS change relative to placebo over 6 months (words),LPS; [4],decreased
same,"% LPS change from baseline, Mean",LPS; [12],−22.0%
same,"% LPS change from baseline, Median",LPS; [12],−30.4%
same,plasma IL-10 change relative to placebo over 6 months,IL-10; CRP>1.13 mg/L,increased
same,IL-10: % difference between NP001-treated and placebo at 6 months (% median change from baseline),IL-10; [13],18.6%
same,"% IL-10 change from baseline, Mean",IL-10; [12],38.8%
same,"% IL-10 change from baseline, Median",IL-10; [12],0.0%
same,plasma sCD163 change relative to placebo over 6 months,sCD163; CRP>1.13 mg/L,decreased
same,sCD163: % difference between NP001-treated and placebo at 6 months (% median change from baseline),sCD163; [13],−19.6%
same,"% CD163 change from baseline, Mean",sCD163; [12],−3.5%
same,"% CD163 change from baseline, Median",sCD163; [12],−5.9%
same,plasma neopterin change relative to placebo over 6 months,Neopterin; CRP>1.13 mg/L,increased
same,Neopterin: % difference between NP001-treated and placebo at 6 months (% median change from baseline),Neopterin; [11],18.1%
same,"% Neopterin change from baseline, Mean",Neopterin; [12],13.9%
same,"% Neopterin change from baseline, Median",Neopterin; [12],10.8%
same,IL-18: % difference between NP001-treated and placebo at 6 months (% median change from baseline),IL-18; [13],−58.3%
same,plasma IL-18 change relative to placebo over 6 months (words),IL-18; [4],decreased
same,"% IL-18 change from baseline, Mean",IL-18; [12],25.8%
same,"% IL-18 change from baseline, Median",IL-18; [12],−2.1%
same,plasma LBP change relative to placebo over 6 months,LBP; CRP>1.13 mg/L,decreased
same,LBP: % difference between NP001-treated and placebo at 6 months (% median change from baseline),"LBP; CRP>1.13 mg/L, aged 40-65, Wilcoxon p 0.006",−25.9%
same,"% LBP change from baseline, Mean",LBP; [12],−1.6%
same,"% LBP change from baseline, Median",LBP; [12],−5.4%
same,plasma HGF change relative to placebo over 6 months,HGF; CRP>1.13 mg/L,decreased
same,HGF: % difference between NP001-treated and placebo at 6 months (% median change from baseline),HGF; [13],−31.4%
same,"% HGF change from baseline, Mean",HGF; [12],−7.6%
same,"% HGF change from baseline, Median",HGF; [12],−14.3%
same,"ratio of LPS to EGF, trend over time",LPS:EGF,decreased over time
same,plasma IL-8 values over the six-month study,IL-8,within the normal range and did not change
same,plasma TNF-a values over the six-month study,TNF-a,within the normal range and did not change
same,plasma IL-6 values over the six-month study,IL-6,within the normal range and did not change
same,monocyte activation marker CD16,CD16,dose dependent down regulation
same,"disease progression vs placebo, post hoc evaluation of phase 2 studies",ALS patients [3],slowed disease progression
